What was measured:
[1] = solubility in water / aqueous solutions; assay type: physicochemical; conditions: aqueous solution, ambient temperature
Source text: The azithromycin citrate of the invention provides aqueous solutions up to 65% (w/w) at ambient temperature, with a pH between 6.8 and 7.5. The new addition salts of azithromycin and citric acid of the invention are particularly useful in the preparation of aqueous or water-alcohol solutions of azitromycin containing up to 65% of the salt, providing a pH between 4 and 8, stable and not suffering from chemical degradation of azithromycin.

[2] = cited from earlier work
[3] = cited from earlier work; remark: listed apart in the source

Row | concentration of aqueous solutions provided [1] | Compound | solubility in water [2] | stability in aqueous acid medium [3]
1 | up to 65 % (w/w) | azithromycin citrate |  | 
2 |  | CC[C@H]1OC(=O)[C@H](C)[C@@H](O[C@H]2C[C@@](C)(OC)[C@@H](O)[C@H](C)O2)[C@H](C)[C@@H](O[C@@H]2O[C@H](C)C[C@H](N(C)C)[C@H]2O)[C@](C)(O)C[C@@H](C)CN(C)[C@H](C)[C@@H](O)[C@]1(C)O [azithromycin, 9-deoxo-9a-aza-9a-methyl-9a-homoerythromycin A] | very insoluble | not stable
